Read-outs that look alike come from different tables or passages of the source. One block for each molecule: values may come before it.
How the values were obtained:
pPLC-γ2 = assay: Immunoblot analysis of pPLC-γ2; format: cell-based; details: IL-12 plus IgG
Method: (§1) FIG. 7 is a panel of bar graphs showing the quantitation of an immunoblot comparison of cells treated with either IL-12 alone, IgG alone, IL-12 plus IgG, or IL-12 plus IgG plus lenalidomide (at 0.1 μM to 10 μM).
(§2) Additionally, administration of the immunomodulatory compound lenalidomide was capable of increasing both pPLC-γ2 and pERK levels (FIGS. 7B and 7C). Increase in the levels of these proteins were also observed in connection with pomalidomide (FIGS. 13A and 13B). PLC-γ2 is involved in the maturation and activation of NK cells and triggers the release of lytic granules (Regunathan et al., 2006, Jour. Immunol 175:749-754, which is incorporated by reference herein in its entirety). PLC-γ2 also induces IFN-γ production and is necessary for cytotoxicity and chemokine production.

perforin = assay: NK cell perforin production; format: cell-based, human; details: with IL-2
Method: (§3) To determine whether lenalidomide enhances IFN-γ production, the following assay was performed. Human IgG (Sigma), at a concentration of 100 μg/mL was coated onto 96-well, flat-bottom plates at 4° C. overnight. The unbound IgG was then washed away. […] Lenalidomide (Revlimid®, Celgene Corporation, Summit, N.J.) was added to the wells in the concentration range of 0.008-5 μM. After a 48-hour incubation, the supernatants were harvested and interferon-gamma (IFN-γ), as well as granzyme B and perforin levels were measured.

[1] = tested on: Rituximab-coated Farage cells; assay: ADCC assay: NK cell specific lysis of Rituximab-coated Farage cells; format: cell-based, human; details: E:T=10:1; for EC50: Homo sapiens, Farage; for increase of cell lysis: vs Rituximab-only treated cells
Method: (§4) Preparation of NK cells: Purified NK cells (5×10^4) were seeded in 96-well U-bottom plates in 100 μL of 10% RPMI-1640 medium, supplemented with human AB+ serum. […] The cells were then incubated at 37° C. overnight.
(§5) Preparation of Rituximab-coated target cancer cells: Various NHL cell lines (Namalwa, Raji, Farage, and Jeko-1) were treated with 20 μg/mL Rituximab (Rituximab, Genentech, Inc.) for 30 minutes at 37° C. Excess unbound Rituximab was then removed by a washing step.
(§6) Addition of Rituximab-coated target cells to NK cells: The Rituximab-coated target cells (5×103/100 μL/well) were added to the pretreated effector NK cells at a ratio of 10:1. The cells were then co-incubated for 4 hours at 37° C.
(§7) Cytotoxicity analysis: NK cell cytotoxicity against the tumor cell lines was analyzed using a standard lactate dehydrogenase release assay (CytoTox 96 Non-radioactive Cytotoxicity Assay, Promega) to measure ADCC in a 50 μL aliquot of supernatant. The experimental release was corrected by subtraction of the spontaneous release of effector cells at the corresponding dilution. Spontaneous release from target cells alone was <15% of the maximum release as determined with target cells lysed in 1% Triton X-100.
(§8) Determination of effector: target ratio: Specific lysis for each effector-to-target (E:T) cell ratio was calculated using the following formula: % specific lysis=([experimental release−spontaneous release]/[maximum release−spontaneous release])×100.

[2] = tested on: Cetuximab-coated HCT-116 cells; assay: NK cell cytotoxicity against Cetuximab-coated HCT-116 cells; format: cell-based, human; details: presence of IL-2
[3] = tested on: Rituximab-coated CD20+ Raji cells; assay: Monocyte-mediated lysis (ADCC) of Rituximab-coated Raji cells; format: cell-based, human
Method: (§9) NK cells and monocytes were isolated from fresh, buffy-coated, whole blood by 30-minute incubation with RossetteSep cocktail (StemCell Technologies, Inc.) followed by Ficoll-Hypaque density gradient centrifugation. CD56+ NK cells were isolated to ˜85% purity and CD14+ monocytes were isolated to ˜80% purity as determined by flow cytometry.
as §5, §7, §8
To evaluate monocyte ADCC, similar methods were used to prepare the monocytes.

[4] = tested on: Src homology-2 containing inositol 5′-phosphatase 1 (phospho-SHIP-1); assay: Immunoblot analysis of phospho-SHIP-1; format: cell-based; details: IL-12 plus IgG; lenalidomide 10 μM
Method: as §1
SHIP-1 is a negative regulator of cell proliferation, survival, and activation and also a negative regulator of Fc-γ and cytokine receptor-mediated signaling (Parihar et al., 2005, Cancer Res. 65:9099-9107). The inhibition of phospho-SHIP-1 increases IFN-γ release following NK cell stimulation with IgG and IL-12 (Parihar et al., 2005, Cancer Res. 65:9099-9107, which is incorporated by reference herein in its entirety) and thus may contribute to the mechanism of action of lenalidomide.

[5] = tested on: Rituximab-coated CD20+ Jeko-1 (mantle cell lymphoma) cells; assay: ADCC assay: NK cell-mediated killing of Rituximab-coated CD20+ Jeko-1 cells; format: cell-based, human; details: for NK cell-mediated killing: E:T 50:1; for increase in tumor cell killing above background: single agent
Method: as §4, §5
[…] The cells were then co-incubated for 4 hours at 37° C.
as §7, §8

[6] = tested on: Rituximab-coated Farage cells; assay: Monocyte-mediated lysis (ADCC) of Rituximab-coated Farage cells; format: cell-based, human; details: E:T 50:1; lenalidomide at 10 μM; from 5%; no IL-2
Method: as §9, §5, §7
Determination of effector: target ratio: Specific lysis for each effector-to-target (E:T) cell ratio was calculated using the following formula: % specific lysis=([experimental release−spontaneous release]/[maximum release−spontaneous release])×100. […]

NK cells [7] = assay: NK cell chemokine/cytokine production in response to Trastuzumab-coated SK-BR3 cells; format: cell-based, human
Method: (§10) As shown herein, immunomodulatory compounds, either alone or in combination with other agents, can alter the expression of several growth factors.
The effects of immunomodulatory compounds lenalidomide and pomalidomide on NK cell chemokine/cytokine production in response to Trastuzumab-coated SK-BR3 cells were assessed using procedures substantially similar to those described in Section 6.6., above.

granzyme B = assay: NK cell granzyme B production; format: cell-based, human; details: over that observed with IL-2 alone; dose-dependent
Method: as §3

pERK = assay: Immunoblot analysis of pERK; format: cell-based; details: IL-12 plus IgG
Method: as §1, §2

Fas-L = Fas-L expression on CD56+ NK cells (flow cytometry); format: cell-based, human
Method: Cytometry was undertaken on 50 μL samples containing 1×10^6 cells/mL in washing buffer, 2% FBS with 0.1% NaN3 in PBS. Fluorochrome-conjugated antibodies, unconjugated antibodies, and isotype control mAb were obtained from PharMingen (San Diego, Calif.). The cells were stained with anti-CD56-PE, anti-FasL-FITC or isotype control mAb (1 μg/10^6 cells), and analyzed by flow cytometry according to the manufacturer's instructions.

NK cells [8] = assay: NK IgG-induced IFN-γ assay; format: cell-based, human; details: for EC50: Homo sapiens, read-out: EC50 of enhancement of IFN-γ production
Method: as §9, §3

[9] = tested on: Rituximab-coated Raji cells; assay: ADCC assay: NK cell specific lysis of Rituximab-coated Raji cells; format: cell-based, human; details: for EC50: Homo sapiens, Raji
Method: as §4, §5, §6, §7, §8
Enhancement of NK cell cytotoxicity by immunomodulatory compounds lenalidomide and pomalidomide was assessed following procedures substantially similar to those described in Section 6.3, above.

[10] = tested on: Rituximab-coated Namalwa cells; assay: ADCC assay: NK cell specific lysis of Rituximab-coated Namalwa cells; format: cell-based, human; details: E:T=10:1; for EC50: Homo sapiens
Method: as §4, §5, §6, §7, §8

NK cells [11] = assay: NK cell expression of growth factors/chemokines (IL-2, IgG, lenalidomide); format: cell-based, human; details: lenalidomide 0.1, 1 or 10 μM with IL-2, IgG
From the text: as §10

[12] = tested on: Trastuzumab-coated SK-BR-3 cells; assay: NK cell cytotoxicity against Trastuzumab-coated SK-BR-3 cells; format: cell-based, human
[13] = lenalidomide 1 μM with IL-2, E:T 50:1
[14] = presence of immobilized IgG and IL-2

EC50 ([1]; IL-2): 42 nM | EC50 ([1]; IL-12): 33 nM | levels of phospho-SHIP-1 [4]: decreased | EC50 (NK cells [8]; immobilized IgG + IL-2): 90 nM | EC50 (NK cells [8]; immobilized IgG + IL-12): 46 nM | EC50 ([9]; IL-2, E:T=10:1): 100 nM | EC50 ([9]; IL-12, E:T=10:1): 140 nM | EC50 ([10]; IL-2): 190 nM | EC50 ([10]; IL-12): 240 nM
Molecule: Nc1cccc2c1CN(C1CCC(=O)NC1=O)C2=O (stereo not shown) [lenalidomide, 1-oxo-2-(2,6-dioxopiperidin-3-yl)-4-aminoisoindoline]
pPLC-γ2 levels (pPLC-γ2): increasing | perforin production (perforin): no effect | increase of cell lysis ([1]; IL-2): 1.8 fold | increase of cell lysis ([1]; IL-12): 1.6 fold | NK cell cytotoxicity [2]: significantly increases | monocyte-mediated lysis ([3]; data not shown): enhance | increase in tumor cell-lysis activity [3, 13]: 2 fold | monocyte-mediated killing [3, 13]: > 60% | NK cell-mediated killing ([5]; lenalidomide 1 μM + IL-2, Rituximab-coated cells): 95% | enhancement of NK cell-mediated killing above background ([5]; lenalidomide and Rituximab combined, background killing=40%): 55% | increase in tumor cell killing above background ([5]; background killing=40%): 5% | increase in NK cell-mediated killing activity ([5]; vs Rituximab-only treatment): 1.4 fold | increase in NK cell-mediated killing activity ([5]; vs uncoated (control) cells): > 2 fold | monocyte-mediated lysis (killing activity) [6]: 20% | production of any chemokines/cytokines (NK cells [7]; compound alone): did not induce | production of GM-CSF (NK cells [7]; [14]): dose-dependently enhanced | production of IL-8 (NK cells [7]; [14]): dose-dependently enhanced | production of IP-10 (NK cells [7]; [14]): dose-dependently enhanced | production of MCP-1 (NK cells [7]; [14]): dose-dependently enhanced | production of MIP-1α (NK cells [7]; [14]): dose-dependently enhanced | production of MIP-1β (NK cells [7]; [14]): not | production of RANTES (NK cells [7]; [14]): dose-dependently enhanced | granzyme B production (granzyme B): enhanced | pERK levels (pERK): increasing | enhancement of NK cell Fas-L expression (Fas-L; lenalidomide 1 μM + IL-2 + immobilized IgG): > 2 fold | NK cell Fas-L expression (Fas-L; lenalidomide 1 μM + IL-2 + immobilized IgG, from <2%): 25% | percentage of CD56+ NK cells expressing Fas-L (Fas-L; lenalidomide 10 μM + immobilized IgG, from <5%): > 10% | NK cell Fas-L expression (Fas-L; lenalidomide 0.1-10 μM + IL-2 10 ng/mL + immobilized IgG): greater than that achieved by either agent alone | enhancement of IFN-γ production of NK cells (NK cells [8]; lenalidomide 0.008-5 μM + human IgG + IL-2, vs IgG plus IL-2 alone): 3 fold | enhancement of IFN-γ production of NK cells (NK cells [8]; lenalidomide 0.008-5 μM + human IgG + IL-12, vs IgG plus IL-12 alone): 8 fold | IFN-γ production (NK cells [8]; lenalidomide alone or lenalidomide plus IgG, no IL-2/IL-12): no IFN-γ was observed | increase of NK cell specific lysis ([9]; E:T=10:1, presence of IL-2 or IL-12, vs Rituximab-only treated cells): 2 fold | NK cell cytotoxicity ([9]; presence of IL-2 (FIG. 8B/9B)): significantly increases | NK cell cytotoxicity ([9]; presence of IL-12 (FIG. 8E/9E)): significantly increases | increase of NK cell specific lysis ([10]; presence of IL-2 or IL-12, vs Rituximab-only treated cells): 5 fold | NK cell expression of GM-CSF (NK cells [11]): increased | NK cell expression of IL-6 (NK cells [11]): decreased | NK cell expression of IL-8 (NK cells [11]): increased | NK cell expression of IP-10 (NK cells [11]): increased | NK cell expression of RANTES (NK cells [11]): increased | NK cell expression of monocyte chemotactic protein-1 (MCP-1) (NK cells [11]): increased | NK cell cytotoxicity ([12]; presence of IL-2): significantly increases | NK cell cytotoxicity ([12]; presence of IL-12): significantly increases

Molecule: Rituximab: anti-CD20 antibody Rituximab (Rituxan®)
maximum killing activity ([3]; Rituximab-coated cells, no immunomodulatory compound, E:T 50:1): ~30% | NK cell-mediated killing ([5]; Rituximab-coated cells without lenalidomide): 70% | increase in tumor cell killing above background ([5]; background killing=40%): approximately 30%

Source: US20100098657A1, “Method of Treating Cancer with Immunomodulatory Compounds and IgG” (priority 2007, published 2010)
